Results on 2 compounds are retold here after ChEMBL document CHEMBL4673353, “Switching a Xanthine Oxidase Inhibitor to a Dual-Target Antagonist of P2Y and P2Y as an Oral Antiplatelet Agent with a Wider Therapeutic Window in Rats than Ticagrelor” (J Med Chem, 2020).

pIC50: −log10 of the molar value. Calls of active or inactive are those of the source. The rule behind the calls is not given here.

Series [1] can be described thus: Oral bioavailability in male Sprague-Dawley rat at 10 mg/kg administered as single dose by LC-MS analysis. It counts as ADME, organism-based. The following applies: in vivo.
A short description of series [2]: Acute toxicity in Kunming mouse assessed as death at 2000 mg/kg, ig administered as single dose monitored every day up to14 days. The conditions noted are these: in vivo, po, 336 h, time 14 day. It counts as organism-based.
Series [3] is described as follows: Acute toxicity in Kunming mouse assessed as increase in body weight at 2000 mg/kg, ig administered as single dose monitored every day up to14 days. The conditions noted are these: in vivo, po, 336 h, time 14 day. It counts as organism-based.
The subject of a further series is Rattus norvegicus. The series can be described thus: Antithrombotic activity in FeCl3-induced Sprague-Dawley rat model of arterial thrombosis assessed as reduction in thrombus weight at 10 mg/kg, po qd administered as single dose for 7 days and measured 2 hrs post last dose. The conditions noted are these: time 7 day. Format: functional. Also noted: scale not given: the % may be the effect or the level left.

The target of another series is Cytochrome P450 3A4 (Homo sapiens, UniProt P08684). The series can be described thus: Inhibition of CYP3A4 in human liver microsomes using testosterone as substrate preincubated for 5 mins followed by NADPH generating system addition and measured after 120 mins by LC-MS/MS. It counts as ADME. (Liver microsomes are vesicles of endoplasmic reticulum, rich in cytochrome P450 enzymes.)

Another series has as its target Cytochrome P450 2D6 (Homo sapiens, UniProt P10635). As to the kind of experiment: Inhibition of CYP2D6 in human liver microsomes using dextromethorphan as substrate preincubated for 5 mins followed by NADPH generating system addition and measured after 120 mins by LC-MS/MS. Format: ADME.
For a further series, the target named is T1, Cytochrome P450 1A2 (Homo sapiens, UniProt P05177).
T1 sequence (P05177 whole entry): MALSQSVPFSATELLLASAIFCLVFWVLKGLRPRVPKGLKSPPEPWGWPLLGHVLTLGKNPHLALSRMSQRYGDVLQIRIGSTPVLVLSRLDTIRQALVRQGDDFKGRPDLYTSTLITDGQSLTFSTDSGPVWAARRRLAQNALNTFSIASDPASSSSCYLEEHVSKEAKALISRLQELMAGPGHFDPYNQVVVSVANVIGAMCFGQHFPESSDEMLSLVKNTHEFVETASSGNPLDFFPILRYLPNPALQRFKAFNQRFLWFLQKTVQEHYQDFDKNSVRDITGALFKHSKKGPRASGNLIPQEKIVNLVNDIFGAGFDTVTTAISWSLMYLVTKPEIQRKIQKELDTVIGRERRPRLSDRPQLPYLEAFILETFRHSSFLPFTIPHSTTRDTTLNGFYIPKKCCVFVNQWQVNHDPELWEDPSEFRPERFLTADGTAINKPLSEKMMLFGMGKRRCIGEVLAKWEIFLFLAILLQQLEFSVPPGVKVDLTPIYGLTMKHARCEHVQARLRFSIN
As to the kind of experiment: Inhibition of CYP1A2 in human liver microsomes using phenacetin as substrate preincubated for 5 mins followed by NADPH generating system addition and measured after 120 mins by LC-MS/MS. It counts as ADME.

In the next series the target is P2Y purinoceptor 12 (Homo sapiens, UniProt Q9H244). As to the kind of experiment: Agonist activity at P2Y12 in human whole blood assessed as decrease in PGE1-induced VASP phosphorylation at 100 to 200 uM measured after 10 mins by immunostaining based flow cytometric analysis. It counts as tissue-based. The following applies: dose 100-200 µM.
Series [4] in a line: AUC (0 to infinity) in male Sprague-Dawley rat at 10 mg/kg, iv administered as single dose by LC-MS analysis. Format: ADME, organism-based. Also noted: time infinity, route intravenous, dose 10 mg/kg. The conditions noted are these: in vivo.

Sequence of Cytochrome P450 3A4 (P08684 whole entry): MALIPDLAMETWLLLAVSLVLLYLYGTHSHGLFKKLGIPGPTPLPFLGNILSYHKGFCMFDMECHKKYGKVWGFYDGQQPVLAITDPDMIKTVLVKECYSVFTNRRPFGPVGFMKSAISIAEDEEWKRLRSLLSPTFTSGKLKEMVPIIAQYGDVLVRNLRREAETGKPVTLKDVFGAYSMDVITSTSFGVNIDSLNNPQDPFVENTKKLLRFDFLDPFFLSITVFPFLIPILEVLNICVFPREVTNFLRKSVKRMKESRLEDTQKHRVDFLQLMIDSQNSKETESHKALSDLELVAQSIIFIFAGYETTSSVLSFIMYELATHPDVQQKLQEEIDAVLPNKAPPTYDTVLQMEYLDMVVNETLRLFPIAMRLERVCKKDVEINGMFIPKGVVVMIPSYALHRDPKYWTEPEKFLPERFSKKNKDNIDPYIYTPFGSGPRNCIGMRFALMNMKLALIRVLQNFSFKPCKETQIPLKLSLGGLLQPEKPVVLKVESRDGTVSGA
Sequence of Cytochrome P450 2D6 (P10635 whole entry): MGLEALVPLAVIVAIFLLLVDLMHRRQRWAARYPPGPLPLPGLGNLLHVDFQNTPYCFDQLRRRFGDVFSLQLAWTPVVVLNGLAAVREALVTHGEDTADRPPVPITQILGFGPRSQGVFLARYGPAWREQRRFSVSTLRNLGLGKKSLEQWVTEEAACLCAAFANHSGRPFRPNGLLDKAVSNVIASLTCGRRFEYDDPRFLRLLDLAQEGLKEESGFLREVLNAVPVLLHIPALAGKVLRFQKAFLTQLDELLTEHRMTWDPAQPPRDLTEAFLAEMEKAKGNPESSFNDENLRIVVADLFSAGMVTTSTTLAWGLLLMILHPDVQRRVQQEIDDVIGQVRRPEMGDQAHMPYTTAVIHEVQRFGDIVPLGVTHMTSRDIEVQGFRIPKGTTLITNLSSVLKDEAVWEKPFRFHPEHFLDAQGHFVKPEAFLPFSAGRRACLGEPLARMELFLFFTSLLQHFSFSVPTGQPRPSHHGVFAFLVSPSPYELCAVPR
Sequence of P2Y purinoceptor 12 (Q9H244 whole entry): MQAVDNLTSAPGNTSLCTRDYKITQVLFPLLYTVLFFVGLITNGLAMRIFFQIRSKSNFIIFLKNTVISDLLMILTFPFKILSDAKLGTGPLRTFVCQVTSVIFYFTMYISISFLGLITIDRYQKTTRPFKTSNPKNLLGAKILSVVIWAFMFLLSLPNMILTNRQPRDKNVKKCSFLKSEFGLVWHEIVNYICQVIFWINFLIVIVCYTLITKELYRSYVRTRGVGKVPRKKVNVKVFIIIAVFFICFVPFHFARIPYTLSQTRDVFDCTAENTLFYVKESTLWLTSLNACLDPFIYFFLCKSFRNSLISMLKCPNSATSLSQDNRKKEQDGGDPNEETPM

The term bioavailability denotes the share of a dose that reaches the circulation, judged against a reference dose that is usually intravenous. Compound `CCOC(=O)c1c(C)nc(-c2cccc(C#N)c2)n1OCc1ccc(C#N)cc1` yielded a bioavailability in [1] of 32.4%. The Activity result is “Non-Toxic” in series [2], “Non-Toxic” in series [3] and 40.7% in the series on Rattus norvegicus.

As usually defined, the pIC50 is the IC50 on a negative log10 scale, so that one unit is a factor of ten. As a reminder, the AUC(0-inf) is total exposure, with the tail of the curve extrapolated. Take `Cc1nc(-c2cccc(C#N)c2)n(OCc2ccc(C#N)cc2)c1C(=O)O`: the negative logarithm of the IC50 (pIC50) against Cytochrome P450 3A4, on Cytochrome P450 2D6 and against Cytochrome P450 1A2 was less than 5.00 in each case. The outcome at P2Y purinoceptor 12 was inactive. Besides, the AUC(0-inf) in series [4] is 3500 ng·h/mL.
